We go through 14 compounds from ChEMBL document CHEMBL2311415, “Cytotoxic quassinoids from Ailanthus altissima” (Bioorg Med Chem Lett, 2013).

Assay [1] concerns HepG2. The assay can be described thus: Cytotoxicity against human adriamycin-resistant HepG2 cells measured after 48 hrs by MTT assay. It counts as functional, cell-based. Particulars: HepG2, 48 h. A general note: Tetrazolium assays rely on reduction of a dye to a coloured formazan, in cell work by metabolically active cells.
A short description of assay [2]: Cytotoxicity against human Hep3B cells measured after 48 hrs by MTT assay. Type of assay: functional, cell-based, Hep 3B2.
For assay [3], the system named is HepG2. The assay can be described thus: Cytotoxicity against human HepG2 cells measured after 48 hrs by MTT assay. Type of assay: functional, cell-based. Particulars: HepG2, 48 h.

A value given as a limit tells only on which side of the number the result lay.

For the compound `CC(=O)O[C@@H]1C(=O)[C@H](C)[C@@H]2CC(=O)O[C@@H]3C[C@H]4[C@H](C)C[C@H](O)C(=O)[C@]4(C)[C@@H]1[C@@]32C`, the IC50 (in the assay with HepG2 [1]; in assay [2]; with HepG2 [3]) was greater than 50 µM each time.
As for `C/C=C(/C)C(=O)O[C@@H]1[C@H]2C(C)=C[C@H](O)[C@@H](O)[C@]2(C)[C@H]2[C@@]3(O)OC[C@@]24[C@@H]1OC(=O)C[C@H]4[C@@H](C)[C@H]3O`, the IC50 (commonly the midpoint of a concentration-inhibition curve) with HepG2 [1] is greater than 50 µM; in assay [2], 2.43 µM; in the assay with HepG2 [3], 10.5 µM.
In the same order, the values of `C=C1[C@@H](O)[C@]2(O)OC[C@@]34[C@H]1[C@@H](OC(=O)[C@](C)(O)CC)C(=O)O[C@@H]3C[C@H]1C(C)=C[C@H](O)[C@@H](O)[C@]1(C)[C@@H]24` are 19.6 µM, 0.98 µM and 1.15 µM.
In the same order, the values of `C/C=C(/C)C(=O)O[C@@H]1[C@H]2C(C)=CC(=O)[C@@H](O)[C@]2(C)[C@H]2[C@@]3(O)OC[C@@]24[C@@H]1OC(=O)C[C@H]4[C@@H](C)[C@H]3O` are 16.9 µM, 0.05 µM and 0.55 µM.
The matching figures for `C=C1[C@@H](O)[C@@]2(O)OC[C@@]34[C@H]1[C@@H](OC(=O)C(O)(CC)COC(=O)/C(C)=C\C)C(=O)O[C@@H]3C[C@H]1C(C)=CC(=O)[C@@H](O)[C@]1(C)[C@@H]24` (stereo partly specified) [ALTISSINOL A]: greater than 50 µM, 0.37 µM and 0.28 µM.
As to `C=C1[C@@H](O)[C@@]2(O)OC[C@@]34[C@H]1[C@@H](OC(=O)C(C)CC)C(=O)O[C@@H]3C[C@H]1C(C)=C[C@H](O)[C@@H](O)[C@]1(C)[C@@H]24` (stereo partly specified) [ALTISSINOL B], the concentration for half-maximal inhibition (IC50) in the assay on HepG2 [1] is greater than 50 µM; in assay [2], 2.36 µM; with HepG2 [3], 1.22 µM.
As to `C[C@@H]1C[C@H](O)C(=O)[C@]2(C)[C@H]3[C@H](O)C(=O)[C@H](C)[C@@H]4CC(=O)O[C@H](C[C@@H]12)[C@]34C` [AMAROLIDE], the IC50 (in the assay with HepG2 [1]; in assay [2]; in the assay with HepG2 [3]) was greater than 50 µM each time.
Turning to `CC1=CC(=O)[C@@H](O)[C@]2(C)[C@H]3[C@@]4(O)OC[C@@]35[C@@H](C[C@@H]12)OC(=O)C[C@H]5[C@@H](C)[C@H]4O` [CHAPARRINONE], the 50% inhibitory concentration (IC50) is greater than 50 µM in the assay with HepG2 [1], 2.17 µM in assay [2] and 1.2 µM in the assay with HepG2 [3].
The matching figures for `C[C@H]1[C@H](O)C(=O)[C@@H]2[C@@]3(C)[C@H](O)[C@@H](O)C[C@@H](C)[C@@H]3C[C@H]3OC(=O)C[C@@H]1[C@@]23C` [CHAPARROLIDE]: greater than 50 µM, greater than 50 µM and greater than 50 µM.
In the case of `COc1cccc2c1C(=O)c1c(O)c3c(c(O)c1C2=O)C[C@@](O)(C(=O)CO)C[C@@H]3O[C@H]1C[C@H](N)[C@H](O)[C@H](C)O1` [DOXORUBICIN], the figures for the half-inhibitory concentration (IC50) (in the assay on HepG2 [1]; in assay [2]) were 85.5 µM and 0.29 µM, respectively.
Consider `CC[C@](C)(O)C(=O)O[C@H]1C(=O)O[C@@H]2C[C@H]3C(C)=C[C@H](O)[C@@H](O)[C@]3(C)[C@H]3[C@]4(O)OC[C@]32[C@@H]1[C@@H](C)[C@H]4O` [GLAUCARUBIN], for which the IC50 was greater than 50 µM with HepG2 [1], 23.5 µM in assay [2] and 35.6 µM in the assay with HepG2 [3].
`C=C1[C@H](O)[C@]2(O)OC[C@]34[C@H]2[C@@]2(C)[C@H](O)[C@@H](O)C=C(C)[C@@H]2C[C@H]3OC(=O)C[C@@H]14` [SHINJULACTONE A]: the IC50 in the assay on HepG2 [1] was greater than 50 µM; in assay [2], 8.01 µM; in the assay with HepG2 [3], 4.67 µM.
In the same order, the values of `CC1=CC(=O)O[C@@H]1[C@@]1(C)C[C@H]2OC(=O)C[C@H]3[C@@H](C)C(=O)C(O)=C1[C@@]23CO` [SHINJULACTONE B] are greater than 50 µM, greater than 50 µM and greater than 50 µM.
In the same order, the values of `CC1=CC(=O)[C@]2(O)[C@@]3(O)C(=O)[C@@H]4[C@]5(CO)[C@H]6CC(=O)O[C@@H]5C[C@@]1([C@@]42C)[C@]63C` [SHINJULACTONE C] are greater than 50 µM, greater than 50 µM and greater than 50 µM.
